# Molecular target: T1, human TLR9 (Homo sapiens, UniProt Q9NR96)
# T1 sequence (Q9NR96 26-1032): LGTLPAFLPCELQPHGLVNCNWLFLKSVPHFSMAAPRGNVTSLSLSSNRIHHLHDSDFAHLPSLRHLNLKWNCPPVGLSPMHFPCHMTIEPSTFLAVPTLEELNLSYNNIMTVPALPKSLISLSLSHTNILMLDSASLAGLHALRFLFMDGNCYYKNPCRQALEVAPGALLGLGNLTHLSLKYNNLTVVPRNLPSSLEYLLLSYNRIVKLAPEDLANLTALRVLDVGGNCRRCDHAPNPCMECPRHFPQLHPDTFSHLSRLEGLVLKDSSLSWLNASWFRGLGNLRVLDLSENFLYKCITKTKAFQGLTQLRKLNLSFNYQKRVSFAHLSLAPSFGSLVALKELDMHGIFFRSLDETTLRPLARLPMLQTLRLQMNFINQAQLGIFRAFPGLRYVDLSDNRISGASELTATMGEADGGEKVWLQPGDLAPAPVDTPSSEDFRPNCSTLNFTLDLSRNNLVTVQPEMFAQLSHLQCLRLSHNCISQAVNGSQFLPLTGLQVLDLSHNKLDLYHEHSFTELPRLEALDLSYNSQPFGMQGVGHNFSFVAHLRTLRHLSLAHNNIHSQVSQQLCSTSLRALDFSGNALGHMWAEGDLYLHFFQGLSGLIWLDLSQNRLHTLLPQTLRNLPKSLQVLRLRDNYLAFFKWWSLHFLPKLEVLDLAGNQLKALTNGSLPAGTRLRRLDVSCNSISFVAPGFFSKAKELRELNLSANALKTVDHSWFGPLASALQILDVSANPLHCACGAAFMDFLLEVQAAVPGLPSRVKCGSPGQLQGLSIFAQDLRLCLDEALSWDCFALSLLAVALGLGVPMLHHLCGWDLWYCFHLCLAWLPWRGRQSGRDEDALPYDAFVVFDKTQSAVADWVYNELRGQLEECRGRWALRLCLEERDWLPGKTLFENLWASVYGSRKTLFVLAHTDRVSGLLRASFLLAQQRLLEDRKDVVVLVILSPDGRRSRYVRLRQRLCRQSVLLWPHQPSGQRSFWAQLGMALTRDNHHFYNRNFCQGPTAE
# Experiment: HEK293-Blue-hTLR-9 cells assay
# Assay type: cell-based
# Details: HEK293-Blue-hTLR9 cells, SEAP reporter, ODN2006 stimulation, 20 hrs
# Description: HEK293-Blue-hTLR-9 Cells Assay:
# A stable HEK293-Blue-hTLR-9 cell line was purchased from InvivoGen (Cat. #: hkb-htlh9, San Diego, Calif., USA). These cells were originally designed for studying the stimulation of human TLR9 by monitoring the activation of NF-κB. A SEAP (secreted embryonic alkaline phosphatase) reporter gene was placed under the control of the IFN-β minimal promoter fused to five NF-κB and AP-1-binding sites. The SEAP was induced by activating NF-κB and AP-1 via stimulating HEK-Blue hTLR9 cells with TLR9 ligands. Therefore the reporter expression was declined by TLR9 antagonist under the stimulation of a ligand, such as ODN2006 (Cat. #: tlrl-2006-1, Invivogen, San Diego, Calif., USA), for incubation of 20 hrs. The cell culture supernatant SEAP reporter activity was determined using QUANTI-Blue™ kit (Cat. #: rep-qb1, Invivogen, San Diego, Calif., USA) at a wavelength of 640 nm, a detection medium that turns purple or blue in the presence of alkaline phosphatase.
# HEK293-Blue-hTLR9 cells were incubated at a density of 250,000-450,000 cells/mL in a volume of 170 μL in a 96-well plate in Dulbecco's Modified Eagle's medium (DMEM) containing 4.5 g/L glucose, 50 U/mL penicillin, […], […], 2 mM L-glutamine, 10% (v/v) heat-inactivated fetal bovine serum with addition of 20 sL test compound in a serial dilution in the presence of final DMSO at 1% and 10 sL of 20 uM ODN2006 in above DMEM, perform incubation under 37° C. in a CO2 incubator for 20 hrs. Then 20 sL of the supernatant from each well was incubated with 180 μL Quanti-blue substrate solution at 37° C. for 2 hrs and the absorbance was read at 620-655 nm using a spectrophotometer. The signalling pathway that TLR9 activation leads to downstream NF-x3B activation has been widely accepted, and therefore similar reporter assay was modified for evaluating TLR9 antagonist.
row,Compound,IC50
1,"O=C(NC1CC2COCC(C1)N2)C1CN(c2ccc(C(F)(F)F)c3nccnc23)CC12CC2 (stereo not shown) [Example 6, N-(3-oxa-9-azabicyclo[3.3.1]nonan-7-yl)-5-[8-(trifluoromethyl)quinoxalin-5-yl]-5-azaspiro[2.4]heptane-7-carboxamide]",1.4 µM
2,"O=C(NC1CC2CCCC(C1)N2)C1CN(c2ccc(C(F)(F)F)c3nccnc23)CC12CC2 (stereo not shown) [Example 10, N-(9-azabicyclo[3.3.1]nonan-3-yl)-5-[8-(trifluoromethyl)quinoxalin-5-yl]-5-azaspiro[2.4]heptane-7-carboxamide]",9.5 µM
3,"O=C(NC1C2CCC1CNC2)C1CN(c2ccc(C(F)(F)F)c3nccnc23)CC12CC2 (stereo not shown) [Example 12, N-(3-azabicyclo[3.2.1]octan-8-yl)-5-[8-(trifluoromethyl)quinoxalin-5-yl]-5-azaspiro[2.4]heptane-7-carboxamide]",1 µM
4,"N#Cc1ccc(N2CC(C(=O)NCC3CNCCO3)C3(CC3)C2)c2nccnc12 (stereo not shown) [Example 13, 5-(8-Cyanoquinoxalin-5-yl)-N-(morpholin-2-ylmethyl)-5-azaspiro[2.4]heptane-7-carboxamide]",2.1 µM
5,"O=C(NC1CC2CNCC(C2)C1)C1CN(c2ccc(C(F)(F)F)c3nccnc23)CC12CC2 (stereo not shown) [Example 15, N-(3-azabicyclo[3.3.1]nonan-7-yl)-5-[8-(trifluoromethyl)quinoxalin-5-yl]-5-azaspiro[2.4]heptane-7-carboxamide]",7.3 µM
6,"C[C@H]1CN(c2ccc(C#N)c3ncccc23)C[C@@H]1C(=O)NC1CCN(C)CC1 [Example 16, (3R,4R)-1-(8-cyano-5-quinolyl)-4-methyl-N-(1-methyl-4-piperidyl)pyrrolidine-3-carboxamide]",4.6 µM
7,"CN1CCC(NC(=O)C2CN(c3ccc(C#N)c4ncccc34)CC2C(F)(F)F)CC1 (stereo not shown) [Example 18, 1-(8-Cyano-5-quinolyl)-N-(1-methyl-4-piperidyl)-4-(trifluoromethyl)pyrrolidine-3-carboxamide]",10.8 µM
8,"CN1CC(NC(=O)C2CN(c3ccc(C(F)(F)F)c4nccnc34)CC23CC3)C2(CC2)C1 (stereo not shown) [Example 20, N-(5-methyl-5-azaspiro[2.4]heptan-7-yl)-5-[8-(trifluoromethyl)quinoxalin-5-yl]-5-azaspiro[2.4]heptane-7-carboxamide]",13.1 µM
9,"NC1CC2(C1)CC(NC(=O)C1CN(c3ccc(C(F)(F)F)c4nccnc34)CC13CC3)C2 (stereo not shown) [Example 22, N-(6-aminospiro[3.3]heptan-2-yl)-5-[8-(trifluoromethyl)quinoxalin-5-yl]-5-azaspiro[2.4]heptane-7-carboxamide]",8.2 µM
10,"O=C(NC1CC2CCC(C1)N2)C1CN(c2ccc(C(F)(F)F)c3nccnc23)CC12CC2 (stereo not shown) [Example 23, N-(8-azabicyclo[3.2.1]octan-3-yl)-5-[8-(trifluoromethyl)quinoxalin-5-yl]-5-azaspiro[2.4]heptane-7-carboxamide]",10.4 µM
11,"N[C@H]1CC[C@H](NC(=O)C2CN(c3ccc(C(F)(F)F)c4nccnc34)CC23CC3)CC1 (stereo partly shown) [Example 24, N-(4-aminocyclohexyl)-5-[8-(trifluoromethyl)quinoxalin-5-yl]-5-azaspiro[2.4]heptane-7-carboxamide]",27.8 µM
12,"CN(C)CC1CC(NC(=O)C2CN(c3ccc(C(F)(F)F)c4nccnc34)CC23CC3)C1 (stereo not shown) [Example 26, N-[3-[(dimethylamino)methyl]cyclobutyl]-5-[8-(trifluoromethyl)quinoxalin-5-yl]-5-azaspiro[2.4]heptane-7-carboxamide]",11.5 µM
13,"C[C@H]1CN(c2ccc([N+](=O)[O-])c3ncccc23)C[C@@H]1C(=O)NC1CCN(C)CC1 [Example 27, (3R,4R)-4-Methyl-N-(1-methyl-4-piperidyl)-1-(8-nitro-5-quinolyl)pyrrolidine-3-carboxamide]",4.5 µM
14,"O=C(NC1CC2(CCNCC2)C1)C1CN(c2ccc(C(F)(F)F)c3nccnc23)CC12CC2 (stereo not shown) [Example 34, N-(7-azaspiro[3.5]nonan-2-yl)-5-[8-(trifluoromethyl)quinoxalin-5-yl]-5-azaspiro[2.4]heptane-7-carboxamide]",16.7 µM
15,"C[C@H]1CN(c2ccc(C#N)n3nccc23)C[C@@H]1C(=O)NC1CCN(C)CC1 [Example 44, (3R,4R)-1-(7-cyanopyrazolo[1,5-a]pyridin-4-yl)-4-methyl-N-(1-methyl-4 piperidyl)pyrrolidine-3-carboxamide]",9.1 µM

# Now from value to compound:
row,IC50,Compound
1,8.3 µM,"O=C(NC1C2CCCC1CNC2)C1CN(c2ccc(C(F)(F)F)c3nccnc23)CC12CC2 (stereo not shown) [Example 8, N-(3-azabicyclo[3.3.1]nonan-9-yl)-5-[8-(trifluoromethyl)quinoxalin-5-yl]-5-azaspiro[2.4]heptane-7-carboxamide]"
2,1 µM,"CN1CCC(NC(=O)C2CN(c3ccc(C(F)(F)F)c4nccnc34)CC23CC3)CC1 (stereo not shown) [Example 11, N-(1-methyl-4-piperidyl)-5-[8-(trifluoromethyl)quinoxalin-5-yl]-5-azaspiro[2.4]heptane-7-carboxamide]"
3,14 µM,"O=C(NC1CC2CNCC2C1)C1CN(c2ccc(C(F)(F)F)c3nccnc23)CC12CC2 (stereo not shown) [Example 21, N-(1,2,3,3a,4,5,6,6a-octahydrocyclopenta[c]pyrrol-5-yl)-5-[8-(trifluoromethyl)quinoxalin-5-yl]-5-azaspiro[2.4]heptane-7-carboxamide]"
4,13.9 µM,"C[C@@H]1CN(c2ccc(C(F)(F)F)c3nccnc23)C[C@H]1C(=O)NC1CCN(C)CC1 [Example 25, (3S,4S)-4-Methyl-N-(1-methyl-4-piperidyl)-1-[8-(trifluoromethyl)quinoxalin-5-yl]pyrrolidine-3-carboxamide]"
5,9.3 µM,"NC1CC(CNC(=O)C2CN(c3ccc(C(F)(F)F)c4nccnc34)CC23CC3)C1 (stereo not shown) [Example 31, N-[(3-aminocyclobutyl)methyl]-5-[8-(trifluoromethyl)quinoxalin-5-yl]-5-azaspiro[2.4]heptane-7-carboxamide]"
6,30.2 µM,"Cc1ccc(N2C[C@H](C(=O)NC3CCN(C)CC3)[C@@H](C)C2)c2nccnc12 [Example 33, (3R,4R)-4-Methyl-N-(1-methyl-4-piperidyl)-1-(8-methylquinoxalin-5-yl)pyrrolidine-3-carboxamide]"
7,4.3 µM,"N#Cc1ccc(N2C[C@H](C(=O)NC3CCN(C4CCNCC4)CC3)[C@@H](C(F)(F)F)C2)c2nccnc12 [Example 35, (3R,4R)-1-(8-Cyanoquinoxalin-5-yl)-N-[1-(4-piperidyl)-4-piperidyl]-4-(trifluoromethyl)pyrrolidine-3-carboxamide]"
8,21.8 µM,"N[C@@H]1C[C@H](NC(=O)C2CN(c3ccc(C(F)(F)F)c4nccnc34)CC23CC3)[C@@H]2C[C@@H]21 (stereo partly drawn) [Example 36, N-[(1R,2S,4R,5S)-4-amino-2-bicyclo[3.1.0]hexanyl]-5-[8-(trifluoromethyl)quinoxalin-5-yl]-5-azaspiro[2.4]heptane-7-carboxamide]"
9,12.3 µM,"NC1CC(NC(=O)C2CN(c3ccc(C(F)(F)F)c4nccnc34)CC23CC3)C1 (stereo not shown) [Example 38, N-(3-Aminocyclobutyl)-5-[8-(trifluoromethyl)quinoxalin-5-yl]-5-azaspiro[2.4]heptane-7-carboxamide]"
10,21.1 µM,"N[C@H]1CC[C@@H](NC(=O)C2CN(c3ccc(C(F)(F)F)c4nccnc34)CC23CC3)CC1 (stereo partly shown) [Example 39, N-(4-Aminocyclohexyl)-5-[8-(trifluoromethyl)quinoxalin-5-yl]-5-azaspiro[2.4]heptane-7-carboxamide]"

# Source: patent US20210323977A1, “PYRROLIDINYL AMIDE COMPOUNDS FOR THE TREATMENT OF AUTOIMMUNE DISEASE” (Hoffmann-La Roche Inc., priority 2018, published 2021)
